Legend:
Format in all cases: cell-based
[1] = test system: juvenile hormone receptor of Daphnia magna (DampaMET); experiment: Yeast reporter assay for antagonist activity in the presence of 10 nM methyl farnesoate; conditions: Yeast 4 of Invention; test substance 10 μM in the presence of 10 nM methyl farnesoate; 0 = group treated with 10 nM methyl farnesoate
Protocol: (§1) With the use of the Yeast 1 of Invention, reporter activity to methyl farnesoate as a juvenile hormone substance was measured. At the outset, the Yeast 1 of Invention was subjected to pre-culture at 30° C. for 18 hours using the pre-culture medium shown in Table 1 until the turbidity (O.D. 595) of the pre-culture medium reached approximately 0.1. The solution of the pre-cultured cells (10 μl) and 1 μl of the solution of methyl farnesoate diluted to various concentrations with dimethyl sulfoxide (DMSO) were mixed with 90 μl of the main culture solution shown in Table 4 in a 96-well plate, and the mixture was subjected to static culture at 30° C. for 18 hours to prepare a reaction solution. The resultant was designated as a test group.
A reaction solution prepared with the addition of 1 μl of DMSO instead of a diluted methyl farnesoate solution was designated as a control group. Fractions of 10 μl each were collected from the reaction solutions and dispensed into each well of another 96-well plate. […] Thereafter, the absorbance (O.D. 405) and the turbidity (O.D. 595) of the reaction solutions were assayed at the wavelength of 405 nm using a microplate reader (tradename: iMark microplate reader, Bio-Rad Laboratories). The increase of induction was calculated in accordance with the following formula.
The increase of induction is described in Ito-Harashima S et al., FEBS Open Bio., 7 (7): pp. 995-1008, 2017. When the increase of induction is positive, the transformant is determined to have reporter activity to the substance tested. The test was performed once or repeated 3 times, 5 times, or 15 times, and the average increase of induction was calculated. […]
With the use of the yeast 4 of the present invention, antagonist activity of juvenile hormone receptors to endrin, aldrin, and dieldrin was evaluated at 10 μM. […]

[2] = test system: juvenile hormone receptor of Daphnia magna (DampaMET); experiment: Yeast reporter (β-galactosidase) assay, transformants with DampaMET and DampaSRC; design: key to Increase in induction: increase of induction; positive value = reporter activity to substance
Protocol: (§2) Subsequently, a reporter plasmid prepared by inserting the nucleotide sequence shown in SEQ ID NO: 2 into a yeast comprising the DampaMET plasmid and the DampaSRC plasmid introduced thereinto by the lithium acetate method. Thus, Yeast 1 of Invention was obtained. In the same manner, Yeasts 2 to 38 of Invention each comprising the response element according to the present invention and Control yeasts 1 to 9 shown in Table 3 were prepared.
as §1
(§3) A reaction solution prepared with the addition of 1 μl of DMSO instead of a diluted methyl farnesoate solution was designated as a control group. Fractions of 10 μl each were collected from the reaction solutions and dispensed into each well of another 96-well plate. Thereafter, 100 μl of an assay reagent comprising a lytic solution (Z buffer: 60 mM Na2HPO4, 40 mM NaH2PO4, 1 mM MgCl2, 10 mM KCl, 2 mM dithiothreitol, 0.20% N-lauroylsarcosine sodium salt) mixed with 1 mg/ml ONPG (orthonitrophenylgalactopyranoside) was dispensed into each well, and the reaction was allowed to proceed at 37° C. for 30 minutes. Thereafter, the absorbance (O.D. 405) and the turbidity (O.D. 595) of the reaction solutions were assayed at the wavelength of 405 nm using a microplate reader (tradename: iMark microplate reader, Bio-Rad Laboratories). The increase of induction was calculated in accordance with the following formula.
(§4) The increase of induction is described in Ito-Harashima S et al., FEBS Open Bio., 7 (7): pp. 995-1008, 2017. When the increase of induction is positive, the transformant is determined to have reporter activity to the substance tested. The test was performed once or repeated 3 times, 5 times, or 15 times, and the average increase of induction was calculated. The control yeast 1 was treated in the same manner and reporter activity was compared.
In the same manner as in Test Example 1, the Yeasts 2, 3, 4, 5, 6, 7, 9, 10, 11, 12, 13, 14, 15, 16, 17, 18, 19, and 20 of Invention were subjected to assays of reporter activity to methyl farnesoate. The test was performed in accordance with Test Example 1, and reporter activity of the yeasts indicated above was compared with that of the control yeasts 2, 3, and 4.
With the use of the control yeast 7 comprising a different nucleotide sequence of the C-box (CACGCG) in the response element, the control yeast 8 comprising a different nucleotide sequence of the E-box (CACGTG), and the control yeast 9 comprising different nucleotide sequences of the C-box and the E-box from the relevant nucleotide sequences of the Yeast 4 of Invention, the influence of a core sequence on reporter activity to methyl farnesoate was evaluated. The test was performed in accordance with Test Example 1.
(§5) With the use of the Yeast 4 and the Yeast 8 of the present Invention, reporter activity to sex hormones; i.e., 17β-estradiol and testosterone, insect juvenile hormones; i.e., juvenile hormone III, and chemical substances suspected of having endocrine disrupting actions, such as 4-nonyl phenol, bisphenol A, 1,1,1-trichloro-2,2-bis(4-chlorophenyl)ethane (DDT), 2,2-bis(4-chlorophenyl)-1,1-dichloroethylene (DDE), and dieldrin, was assayed. The test was performed in accordance with Test Example 1. All the test substances were treated at 10 μM. […]

[3] = test system: juvenile hormone receptor of Daphnia magna (DampaMET); experiment: Yeast reporter (β-galactosidase) assay, Control yeast 5 with DampaMET, DmTai and DmJHRR; conditions: Control yeast 5 (DmJHRR x3, DampaMET, DmTai), test substance 10 μM
Protocol: For further comparison, a plasmid comprising a region including the juvenile hormone response element of the Kr-hi gene of Drosophila melanogaster (DmJHRR) inserted thereinto was prepared. DmJHRR is described in He Q et al., J. Biol. Chem., 289 (40), pp. 27874-27885, 2014. A plasmid comprising 3 consecutive repeats of the DmJHRR sequence inserted thereinto was prepared in accordance with the method described above, except that oligo DNA comprising the DmJHRR sequence (SEQ ID NO: 15) was used instead of the oligo DNA shown in SEQ ID NO: 3 and oligo DNA partially complementary to SEQ ID NO: 15 (SEQ ID NO: 16) was used instead of the oligo DNA shown in SEQ ID NO: 4.
as §2, §1, §3, §4, §5

[4] = test system: juvenile hormone receptor of Drosophila melanogaster (DmMET); experiment: Yeast reporter (β-galactosidase) assay, transformants with DmMET and DmTai; conditions: test substance 10 μM
Protocol: A plasmid expressing a juvenile hormone receptor of Drosophila melanogaster (hereafter, referred to as a “DmMET plasmid”) was prepared in the same manner. At the outset, ORF of cDNA of the DmMET gene was amplified by PCR using, as a template, cDNA of Drosophila melanogaster larvae (Clontech) and the primers for DmMET: DmMET Fwd (SEQ ID NO: 21) and DmMET Rev (SEQ ID NO: 22). PCR was carried out by repeating a cycle of 98° C. for 10 seconds, 55° C. for 30 seconds, and 68° C. for 1.5 minutes 25 times.
as §2, §1, §3, §4
With the use of the Yeast 4 and the Yeast 8 of the present Invention, reporter activity to sex hormones; i.e., 17β-estradiol and testosterone, insect juvenile hormones; i.e., juvenile hormone III, and chemical substances suspected of having endocrine disrupting actions, such as 4-nonyl phenol, bisphenol A, 1,1,1-trichloro-2,2-bis(4-chlorophenyl)ethane (DDT), 2,2-bis(4-chlorophenyl)-1,1-dichloroethylene (DDE), and dieldrin, was assayed. The test was performed in accordance with Test Example 1. All the test substances were treated at 10 μM. For comparison, reporter activity to compounds was assayed using the control yeast 5 and the control yeast 6 comprising a known juvenile hormone receptor response element (i.e., the JH response element of Drosophila melanogaster) integrated therein.

[5] = Yeast 4 of Invention (SEQ ID NO: 2 x4), test substance 100 μM
[6] = Control yeast 6 (DmJHRR x3, DmMET, DmTai)
[7] = Yeast 8 of Invention (SEQ ID NO: 2 x4, DmMET, DmTai)
[8] = Yeast 4 of Invention (SEQ ID NO: 2 x4, DampaMET, DampaSRC), test substance 10 μM

## ClC1=C(Cl)C2(Cl)C3C4C=CC(C4)C3C1(Cl)C2(Cl)Cl (stereo not shown) [Aldrin, aldrin]
[1]
  Increase in induction (antagonist activity): −9.02

## CC#Cc1cc(C)nc(Nc2ccccc2)n1 [Mepanipyrim, mepanipyrim]
[2]; [5]
  Increase in induction: −0.76

## C[C@]12CC[C@@H]3c4ccc(O)cc4CC[C@H]3[C@@H]1CC[C@@H]2O [17β-estradiol]
[3]
  Increase in induction: −0.14
[4]; [6]
  Increase in induction: −0.29
[4]; [7]
  Increase in induction: 1.01
[2]; [8]
  Increase in induction: 1.97

## Cn1nc(C(F)(F)F)c(CS(=O)(=O)C2=NOC(C)(C)C2)c1OC(F)F [Pyroxasulfone, pyroxasulfone]
[2]; [5]
  Increase in induction: −0.50

## C[C@]12CC[C@H]3[C@@H](CCC4=CC(=O)CC[C@@]43C)[C@@H]1CC[C@@H]2O [Testosterone, testosterone]
[3]
  Increase in induction: −0.02
[4]; [6]
  Increase in induction: −0.22
[4]; [7]
  Increase in induction: 0.98
[2]; [8]
  Increase in induction: 1.78

## CCCCCCCCCc1ccc(O)cc1 [4-nonyl phenol]
[4]; [7]
  Increase in induction: 1.81
[2]; [8]
  Increase in induction: 2.16

## CC(C)OC(=O)N[C@H](C(=O)N[C@H](C)c1nc2ccc(F)cc2s1)C(C)C [Benthiavalicarb isopropyl, benthiavalicarb isopropyl]
[2]; [5]
  Increase in induction: −0.37

## ClC(Cl)=C(c1ccc(Cl)cc1)c1ccc(Cl)cc1 [DDE, 2,2-bis(4-chlorophenyl)-1,1-dichloroethylene]
[3]
  Increase in induction: −0.08
[4]; [6]
  Increase in induction: −0.19
[4]; [7]
  Increase in induction: 1.23
[2]; [8]
  Increase in induction: 2.15

## ClC1=C(Cl)[C@]2(Cl)[C@@H]3[C@@H]4C[C@@H]([C@H]5O[C@@H]45)[C@@H]3[C@@]1(Cl)C2(Cl)Cl [Dieldrin, dieldrin]
[1]
  Increase in induction (antagonist activity): −12.46
[3]
  Increase in induction: 0.00
[4]; [6]
  Increase in induction: −0.02
[4]; [7]
  Increase in induction: 0.89
[2]; [8]
  Increase in induction: 3.85

## ClC1=C(Cl)C2(Cl)C3C4CC(C5OC45)C3C1(Cl)C2(Cl)Cl (stereo not shown) [Endrin, endrin]
[1]
  Increase in induction (antagonist activity): −0.03

## CC(C)(c1ccc(O)cc1)c1ccc(O)cc1 [Bisphenol A, bisphenol A]
[3]
  Increase in induction: −0.38
[4]; [6]
  Increase in induction: −0.23
[4]; [7]
  Increase in induction: 0.52
[2]; [8]
  Increase in induction: 1.14

## COc1ccc(-n2c(=O)c(C(=O)C3C(=O)CCCC3=O)nc3c(Cl)cccc32)cc1 [Fenquinotrione, fenquinotrione]
[2]; [5]
  Increase in induction: −0.24

## COC(=O)NCc1cc(/C(C)=N/OCc2cccc(C)n2)ccc1Cl [Pyribencarb, pyribencarb]
[2]; [5]
  Increase in induction: −0.24

## COC(=O)/C=C(\C)CC/C=C(\C)CC[C@H]1OC1(C)C [Juvenile hormone III, juvenile hormone III]
[3]
  Increase in induction: 0.41
[3]; listed as juvenile hormone III
  Increase in induction: induced
[4]; [6]
  Increase in induction: 0.58
[4]; Control yeast 6 (DmJHRR x3, DmMET, DmTai), listed as juvenile hormone III
  Increase in induction: induced
[4]; [7]
  Increase in induction: 1.45
[2]; [8]
  Increase in induction: 6.20

## Clc1ccc(C(c2ccc(Cl)cc2)C(Cl)(Cl)Cl)cc1 [DDT, 1,1,1-trichloro-2,2-bis(4-chlorophenyl)ethane]
[3]
  Increase in induction: −0.07
[4]; [6]
  Increase in induction: −0.24
[4]; [7]
  Increase in induction: 0.37
[2]; [8]
  Increase in induction: 0.65

Source: patent publication US20230250436A1, “NUCLEIC ACID THAT INTERACTS WITH A RECEPTOR FOR ENDOCRINE DISRUPTING CHEMICALS AND USE THEREOF” (KUMIAI CHEMICAL INDUSTRY CO., LTD., priority 2020, published 2023)
